BindingDB's records for patent US9572811 (Principia Biopharma, 2017)
pIC50: −log10 of the molar value.

Target: Tyrosine-protein kinase BTK (Homo sapiens, UniProt Q06187)
Test: Caliper-based kinase assay
Details: 25 °C
Protocol: A Caliper-based kinase assay (Caliper Life Sciences, Hopkinton, Mass.) was used to measure inhibition of Btk kinase activity of a compound of Formula (I). […] The reaction was then terminated with EDTA, final concentration 20 mM and the phosphorylated reaction product was quantified on a Caliper Desktop Profiler (Caliper LabChip 3000).

Sequence of Tyrosine-protein kinase BTK (Q06187 whole entry): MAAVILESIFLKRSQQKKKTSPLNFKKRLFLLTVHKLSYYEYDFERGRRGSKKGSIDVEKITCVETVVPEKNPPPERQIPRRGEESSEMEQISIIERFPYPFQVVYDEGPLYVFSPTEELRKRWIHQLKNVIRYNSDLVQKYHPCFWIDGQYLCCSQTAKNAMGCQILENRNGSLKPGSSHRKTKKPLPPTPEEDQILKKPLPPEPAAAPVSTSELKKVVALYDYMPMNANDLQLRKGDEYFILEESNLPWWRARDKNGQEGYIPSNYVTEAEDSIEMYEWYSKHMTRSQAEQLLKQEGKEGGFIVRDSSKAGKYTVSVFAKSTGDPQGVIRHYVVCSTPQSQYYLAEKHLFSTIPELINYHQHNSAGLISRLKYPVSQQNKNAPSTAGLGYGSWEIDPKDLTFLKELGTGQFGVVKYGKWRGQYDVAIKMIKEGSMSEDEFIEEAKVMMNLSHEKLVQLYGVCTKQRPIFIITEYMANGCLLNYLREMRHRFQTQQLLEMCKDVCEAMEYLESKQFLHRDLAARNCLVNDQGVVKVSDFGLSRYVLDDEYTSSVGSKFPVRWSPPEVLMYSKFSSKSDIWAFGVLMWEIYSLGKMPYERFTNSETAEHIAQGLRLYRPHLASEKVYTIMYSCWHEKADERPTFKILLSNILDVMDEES

pIC50: 8.37
Structure (SMILES): CN(CCn1nc(-c2ccc(Oc3ccccc3)cc2)c2c(N)ncnc21)C(=O)C(C#N)=CC1CC1 [US9572811, Example 36A]
